From US10744134B2, “Pharmaceutical composition for cancer immunotherapy and/or immunological activation containing diamino heterocyclic carboxamide compound as active ingredient” (Astellas Pharma Inc., priority 2015, dated 2020)

How the values were obtained:
malignant melanoma = settings: first-line, malignant melanoma patients; cited from earlier work
[1] = tested on: colon carcinoma cell line MC38; assay: Anti-tumor evaluation (in vivo) in colon carcinoma cell line MC38 cancer-bearing model (Example 1); set-up: species or system C57BL/6J mice; settings: hemifumarate of compound A, oral, vs control group, FIG. 1
Description: Evaluation of Anti-Tumor (In Vivo) of Compound a with Respect to Colon Carcinoma Cell Line MC38 Cancer-Bearing Model
The colon cancer cell line MC38 cells (National Cancer Institute) were cultured in Dulbecco's modified Eagle's minimum essential medium (DMEM) supplemented with 10% Fetal Bovine Serum (FBS). MC38 subcutaneous cancer-bearing mice were subsequently prepared by subcutaneously transplanting MC38 cells on the back of C57BL/6J mice (female, Charles river, Japan). After confirming the engraftment of the tumor, the change in the tumor volume of each of the group (COMPOUND A 30 mg/kg bid) in which hemifumarate of the compound A, which is a test compound, dissolved in 0.5% of methyl cellulose is orally administered at a dose of 30 mg/kg (in terms of free form) twice a day for 17 days, the group (COMPOUND A 60 mg/kg qd) in which hemifumarate of the compound A is orally administered at a dose of 60 mg/kg (in terms of free form) once a day for 17 days, and the control group in which the compound A is not administered, was measured at a frequency of twice a week.

[2] = tested on: colon carcinoma cell line MC38; assay: Tumor volume change in MC38 subcutaneous cancer-bearing mice (Example 2); type: in vivo, C57BL/6J mouse; settings: hemifumarate, oral, 100 mg/kg (free form) once a day for seven days; individuals qd-2 and qd-3; measured on 4th and 7th days; FIG. 2
Description: (§1) Evaluation of Immune Activation of Compound a with Respect to Colon Carcinoma Cell Line MC38 Cancer-Bearing Model
(§2) MC38 subcutaneous cancer-bearing mice were prepared by subcutaneously transplanting MC38 cells on the back of C57BL/6J mouse (female, Charles river, Japan). After confirming the engraftment of the tumor, hemifumarate of the compound A, which is the test compound, was orally administered to seven mice at a dose of 100 mg/kg (in terms of free form) once a day for seven days. As a control, 0.5% of methylcellulose was also orally administered to seven mice at the same dose of 100 mg/kg once a day for seven days, which was the same administration as the group administered at a 100 mg/kg. After measuring the tumor volume change on the 4th and 7th days, spleens and tumors were collected from a total of six mice of three examples (control-1, control-2, and control-3) extracted from the control group and three examples extracted from the compound A administered groups (COMPOUND A 100 mg/kg qd-1, COMPOUND A 100 mg/kg qd-2, and COMPOUND A 100 mg/kg qd-3). Then, staining was performed with anti CD3 antibody (eBioscience), anti CD4 antibody (Biolegend), anti CD8 antibody (eBioscienec), anti CD45 antibody (Biolegend), and the number of positive cells of each antigen was measured using a flow cytometer (BD FACS Verse).

CD4+ and CD8+ T cells = assay: Immune activation: flow cytometry of CD4+ and CD8+ T cells in spleen and tumor of MC38 cancer-bearing mice (Example 2); type: in vivo, C57BL/6J mouse; settings: 100 mg/kg qd oral for seven days
Description: as §1, §2

Molecule	overall survival extended, share of the nivolumab group (malignant melanoma)	tumor volume ([1]; 30 mg/kg (free form) twice a day for 17 days)	tumor volume ([1]; 60 mg/kg (free form) once a day for 17 days)	tumor volume [2]	proportion of the number of CD8+ cells in CD45+ and CD3+ cells in a tumor (CD4+ and CD8+ T cells; individuals qd-2 and qd-3 in which tumor growth was suppressed, FIG. 5)	proportion of the number of CD4+ cells in CD45+ and CD3+ cells in spleen (CD4+ and CD8+ T cells; three mice vs three controls, FIG. 3)	proportion of the number of CD8+ cells in CD45+ and CD3+ cells in spleen (CD4+ and CD8+ T cells; three mice vs three controls, FIG. 4)
nivolumab: anti-PD-1 antibody marketed as a therapeutic agent for malignant melanoma and non-small cell lung cancer	72.9%						
CCc1nc(C(N)=O)c(Nc2ccc(N3CCC(N4CCN(C)CC4)CC3)c(OC)c2)nc1NC1CCOCC1 [compound A, 6-ethyl-3-({3-methoxy-4-[4-(4-methylpiperazin-1-yl)piperidin-1-yl]phenyl}amino)-5-(tetrahydro-2H-pyran-4-ylamino)pyrazine-2-carboxamide]		strong effect of suppressing the increase in the tumor volume	strong effect of suppressing the increase in the tumor volume	the increase in the tumor volume was hardly observed	the increase of the number of CD8+ cells was observed	the increase in the number of CD4+ cells and CD8+ cells in spleen was observed	the increase in the number of CD4+ cells and CD8+ cells in spleen was observed
